In patent publication US20040170959A1, “Methods for identifying antiviral oligonucleotides” (priority 2002, published 2004):

What was measured:
Hep2 cells = settings: uninfected cells treated 7 days
[1] = human, in vivo; cited from earlier work
Hepatitis C virus (HCV) = settings: prolonged therapy; cited from earlier work

Compound: NC(=O)c1ncn([C@@H]2O[C@H](CO)[C@@H](O)[C@H]2O)n1 [Ribavirin]
- toxicity in Hep2 cells (Hep2 cells): significantly toxic

Compound: Nc1nc(O)c2ncn(COC(CO)CO)c2n1 [ganciclovir]
- neutropenia and thrombocytopenia, share of patients treated [1]: 40%

Compound: O=c1[nH]c(=O)n([C@H]2C[C@H](O)[C@@H](CO)O2)cc1I [idoxuridine]
- allergic reactions, share of patients treated [1]: 35%

Compound: interferon alpha
- share of patients in whom therapy is effective (Hepatitis C virus (HCV)): about 40% of patients
